Laboratory results as given in patent US20240277829A1, “HIV-1 VACCINATION AND SAMT-247 MICROBICIDE TO PREVENT HIV-1 INFECTION” (priority 2021, published 2024).

Columns and labels:
Format in all cases: cell-based
NKG2A^+ NK cells = assay: Intracellular cytokines of human blood NK cells using SAMT-247 and PMA stimulation with or without zinc chelator; settings: PMA stimulation with or without SAMT-247, presence of TPEN
Method: Intracellular cytokines of Human blood NK cells using SAMT-247 and PMA stimulation with or without zinc chelator. The levels of NKG2A^+ NK cells were measured in blood of healthy humans. Human PBMCs were thawed and cultured in R10 in the presence or absence of SAMT-247 and/or PMA for 12 hours. Cells were incubated with or without Zinc chelator TPEN (cat. #P4413-100 MG, 5 μM) for 12 h. Subsequently, PBMCs were surface stained with the following: BUV737 anti-CD3 (SP34-2; cat. #741872, 5 μl), Alexa700 anti-CD20 (2H7; cat. #560631, 5 μl), BV786 anti-CD45 (HI30; cat. #563716, 5 μl) from BD Biosciences; APC-H7 anti-CD11b (ICRF44; cat. #47-0118-42, 5 μl) from eBioscience and PE-Cy7 anti-NKG2A (Z199; cat. #B10246, 5 μl) from Beckman coulter for 30 minutes at room temperature. This was followed by permeabilization with FOX3-transcription buffer set (cat. #00-5523-00) from eBioscience according to the manufacture's recommendation and subsequently intracellular staining with the following: BV750 anti-TNF-α (MAB11; cat. #566359, 5 μl), BUV396 anti-IFN-γ (B27; cat. #563563, 5 μl), BV510 anti-GranB (GB11; cat. #563388, 5 μl) from BD Biosciences; and FITC anti-Perforin (pf-344; cat. #3465-7, 5 μl) from MABTECH for 30 minutes at room temperature. Flow cytometry acquisitions were performed on a FACSymphony A5 and examined using FACSDIVA™ software (BD Biosciences).

NKG2A^+ cells = assay: Zinc chelation: macaque blood NK cells, SAMT-247 and/or gp120 peptides with or without TPEN; settings: for frequency of IFN-γ^+ NKG2A^+ cells / frequency of TNF-α^+ NKG2A^+ cells: with vs without zinc chelator
Method: (§1) Zinc chelation: The frequencies and cytokine levels of NK cells, monocytes and T cells were measured in macaque blood. Cryopreserved PBMCs were thawed and cultured in R10 in the presence/or absence of SAMT-247 and/or gp120 peptides for 12 hours. Cells were incubated with or without Zinc chelator TPEN (cat. #P4413-100 MG, 5 μM) for 12 h. Subsequently, cells were stained for live cells with Live/Dead Blue dye (cat. #L34962, 0.5 μl) from Thermofisher; followed by surface staining with the following: Alexa 700 anti-CD3 (SP34-2; cat. #557917, 5 μl), BV711 anti-CD4 (L200; cat. #563913, 5 μl), BB700 anti-CD8 (RPA-T8; cat. #566452, 5 μl), BUV737 anti-CD20 (2H7; cat. #612848, 5 μl), PE anti-CD45 (D058-1283; cat. #552833, 5 μl), BV786 anti-CCR5 (3A9; cat. #565001, 5 μl), BV496 anti-CD16 (3G8; cat. #612944, 5 μl), BUV661 anti-HLA-DR (G46-6; cat. #612980, 5 μl), BUV805 anti-CD14 (M5E2; cat. #565779, 5 μl) from BD Biosciences; APC-H7 anti-CD11b (ICRF44; cat. #47-0118-42, 5 μl), PE-Cy5 anti-CD95 (ICRF44; cat. #15-0959-42, 5 μl) from eBioscience; APC anti-α4β7, provided by the NIH Nonhuman Primate Reagent Resource (R24 OD010976, and NIAID contract HHSN272201300031C); BV605 anti-CCR6 (G034E3; cat. #353420, 5 μl), BV650 anti-CXCR3 (G025H7; cat. #353730, 5 μl), from Biolegend and PE-Cy7 anti-NKG2A (Z199; cat. #B10246, 5 μl) from Beckman coulter for 30 minutes at room temperature. This was followed by permeabilization with a FOX3-transcription buffer set (cat. #00-5523-00) from eBioscience according to the manufacture's recommendation and subsequently intracellular staining with the following: BV750 anti-TNF-α (MAB11; cat. #566359, 5 μl), BUV395 anti-IFN-γ (B27; cat. #563563, 5 μl), BV510 anti-GranB (GB11; cat. #563388, 5 μl), BV421 anti-IL-10 (JES3-9D7; cat. #564053, 5 μl), PE-CF594 anti-Ki67 (B56; cat. #567120, 5 μl) from BD Biosciences and FITC anti-Perforin (pf-344; cat. #3465-7, 5 μl) from MABTECH for 30 minutes at room temperature. Flow cytometry acquisitions were performed on a FACSYMPHONY™ A5 and examined using FACSDIVA™ software (BD Biosciences).

CD14^+ monocytes = assay: Zinc chelation: macaque blood monocytes, SAMT-247 and/or gp120 peptides with or without TPEN
Method: as §1

Th1 and Th2 cells = assay: Zinc chelation: macaque blood T cells, SAMT-247 and/or gp120 peptides with or without TPEN; settings: for frequency of IFN-γ^+ Th1^+ cells / frequency of IFN-γ^+ Th1^+CCR5^+α4β7^+ cells / frequency of IFN-γ^+ Th1^+CCR5^−α4β7^− cells / frequency of IFN-γ^+ Th2^+ cells / frequency of IFN-γ^+ Th2^+CCR5^+α4β7^+ cells / frequency of IFN-γ^+ Th2^+CCR5^−α4β7^− cells / frequency of IL-10^+ Th1^+ cells / frequency of IL-10^+ Th1^+CCR5^+α4β7^+ cells / frequency of IL-10^+ Th1^+CCR5^−α4β7^− cells / frequency of IL-10^+ Th2^+ cells / frequency of IL-10^+ Th2^+CCR5^+α4β7^+ cells / frequency of IL-10^+ Th2^+CCR5^−α4β7^− cells / frequency of TNF-α^+ Th1^+ cells / frequency of TNF-α^+ Th1^+CCR5^+α4β7^+ cells / frequency of TNF-α^+ Th1^+CCR5^−α4β7^− cells / frequency of TNF-α^+ Th2^+ cells / frequency of TNF-α^+ Th2^+CCR5^+α4β7^+ cells: with vs without zinc chelator
Method: as §1

human NK cells = assay: Zinc intensity by confocal microscopy
Method: Zinc intensity. NKG2A^+ NK cells were isolated from cryopreserved healthy human PBMCs. NK cells were labeled with APC anti-NKG2A (Z199, cat. #A60797) from Beckman coulter, followed by separation with APC MicroBeads (#130-090-855, Miltenyi Biotec Inc.) using manufacturer instructions. Subsequently NK cells were cultured in the presence or absence of SAMT-247 and/or PMA stimulation for 7 hours. Cells were plated on ibidi chamber slides. Cells were washed and treated with zinc chelator or remained untreated for 30 minutes according to the manufacturers' recommendation using a cell-based Zinc assay kit (cat. #ab241014, Abcam). Subsequently cells were washed and stained with Zinc probe-green (cat. #ab241014, Abcam) and DAPI (Molecular Probes, Waltham, MA, USA) was used to visualize nuclei. Signals were visualized with a confocal laser-scanning microscope (Leica SP8, Buffalo Grove, IL, USA). Image processing was performed using the Imaris 9.2.1 software.

[1] = gp120 pooled peptide + SAMT-247
[2] = SAMT-247, with vs without zinc chelator
[3] = gp120 pooled peptide + SAMT-247, with vs without zinc chelator
[4] = gp120 pooled peptide, with vs without zinc chelator
[5] = gp120 pooled peptides ± SAMT-247, TPEN treatment

Compound: c1ccc(CN(CCN(Cc2ccccn2)Cc2ccccn2)Cc2ccccn2)nc1 [Zinc chelator, N, N,N′,N′ tetrakis-(2-pyridyl-methyl) ethylendiamine]
- IFN-γ and TNF-α expression in human NKG2A^+ cells (NKG2A^+ NK cells): significantly reduced
- IFN-γ and TNF-α expression in NKG2A^+ cells (NKG2A^+ cells; gp120 peptide and gp120 peptide/SAMT-247 treated cells, TPEN): significantly decreased
- SAMT-247's ability to increase granzyme B and perforin in NKG2A^+ cells (NKG2A^+ cells; gp120 peptide stimulation, presence of TPEN): No significant changes
- frequency of IFN-γ^+ NKG2A^+ cells (NKG2A^+ cells; [1]): ↓
- frequency of TNF-α^+ NKG2A^+ cells (NKG2A^+ cells; [1]): ↓
- frequency of IFN-γ^+ NKG2A^+ cells (NKG2A^+ cells; gp120 pooled peptide): ↓
- frequency of TNF-α^+ NKG2A^+ cells (NKG2A^+ cells; gp120 pooled peptide): ↓
- frequency of CD14^+ cells (CD14^+ monocytes; [2]): ↓
- frequency of IL-10^+ CD14^+ cells (CD14^+ monocytes; [2]): ↓
- frequency of CD14^+ cells (CD14^+ monocytes; [3]): ↓
- frequency of IL-10^+ CD14^+ cells (CD14^+ monocytes; [3]): ↓
- frequency of CD14^+ cells (CD14^+ monocytes; [4]): ↓
- frequency of IL-10^+ CD14^+ cells (CD14^+ monocytes; [4]): ↓
- IL-10 production by CD14^+ cells (CD14^+ monocytes; [5]): decreased
- frequency of CD14^+ cells (CD14^+ monocytes; [5]): decreased
- frequency of IFN-γ^+ Th1^+ cells (Th1 and Th2 cells; SAMT-247): ↓
- frequency of IFN-γ^+ Th1^+CCR5^+α4β7^+ cells (Th1 and Th2 cells; SAMT-247): ↓
- frequency of IFN-γ^+ Th1^+CCR5^−α4β7^− cells (Th1 and Th2 cells; SAMT-247): ↓
- frequency of IFN-γ^+ Th2^+ cells (Th1 and Th2 cells; SAMT-247): ↓
- frequency of IFN-γ^+ Th2^+CCR5^+α4β7^+ cells (Th1 and Th2 cells; SAMT-247): ↓
- frequency of IFN-γ^+ Th2^+CCR5^−α4β7^− cells (Th1 and Th2 cells; SAMT-247): ↓
- frequency of IL-10^+ Th1^+ cells (Th1 and Th2 cells; SAMT-247): ↓
- frequency of IL-10^+ Th1^+CCR5^+α4β7^+ cells (Th1 and Th2 cells; SAMT-247): ↓
- frequency of IL-10^+ Th1^+CCR5^−α4β7^− cells (Th1 and Th2 cells; SAMT-247): ↓
- frequency of IL-10^+ Th2^+ cells (Th1 and Th2 cells; SAMT-247): ↓
- frequency of IL-10^+ Th2^+CCR5^+α4β7^+ cells (Th1 and Th2 cells; SAMT-247): ↓
- frequency of IL-10^+ Th2^+CCR5^−α4β7^− cells (Th1 and Th2 cells; SAMT-247): ↓
- frequency of TNF-α^+ Th1^+ cells (Th1 and Th2 cells; SAMT-247): ↓
- frequency of TNF-α^+ Th1^+CCR5^+α4β7^+ cells (Th1 and Th2 cells; SAMT-247): ↓
- frequency of TNF-α^+ Th1^+CCR5^−α4β7^− cells (Th1 and Th2 cells; SAMT-247): ↓
- frequency of TNF-α^+ Th2^+ cells (Th1 and Th2 cells; SAMT-247): ↓
- frequency of TNF-α^+ Th2^+CCR5^+α4β7^+ cells (Th1 and Th2 cells; SAMT-247): ↓
- INF-γ and IL-10 production in Th2 CCR5^−α4β7^− cells (Th1 and Th2 cells; TPEN): decreased
- frequency of IFN-γ^+ Th1^+CCR5^+α4β7^+ cells (Th1 and Th2 cells; Unstim): ↓
- frequency of IL-10^+ Th1^+CCR5^+α4β7^+ cells (Th1 and Th2 cells; Unstim): ↓
- frequency of IL-10^+ Th1^+CCR5^−α4β7^− cells (Th1 and Th2 cells; Unstim): ↓
- frequency of IL-10^+ Th2^+CCR5^+α4β7^+ cells (Th1 and Th2 cells; Unstim): ↓
- frequency of TNF-α^+ Th2^+CCR5^+α4β7^+ cells (Th1 and Th2 cells; Unstim): ↓
- frequency of IFN-γ^+ Th1^+ cells (Th1 and Th2 cells; [1]): ↓
- frequency of IFN-γ^+ Th1^+CCR5^+α4β7^+ cells (Th1 and Th2 cells; [1]): ↓
- frequency of IFN-γ^+ Th1^+CCR5^−α4β7^− cells (Th1 and Th2 cells; [1]): ↓
- frequency of IFN-γ^+ Th2^+ cells (Th1 and Th2 cells; [1]): ↓
- frequency of IFN-γ^+ Th2^+CCR5^+α4β7^+ cells (Th1 and Th2 cells; [1]): ↓
- frequency of IFN-γ^+ Th2^+CCR5^−α4β7^− cells (Th1 and Th2 cells; [1]): ↓
- frequency of IL-10^+ Th1^+ cells (Th1 and Th2 cells; [1]): ↓
- frequency of IL-10^+ Th1^+CCR5^+α4β7^+ cells (Th1 and Th2 cells; [1]): ↓
- frequency of IL-10^+ Th1^+CCR5^−α4β7^− cells (Th1 and Th2 cells; [1]): ↓
- frequency of IL-10^+ Th2^+ cells (Th1 and Th2 cells; [1]): ↓
- frequency of IL-10^+ Th2^+CCR5^+α4β7^+ cells (Th1 and Th2 cells; [1]): ↓
- frequency of IL-10^+ Th2^+CCR5^−α4β7^− cells (Th1 and Th2 cells; [1]): ↓
- frequency of TNF-α^+ Th1^+CCR5^−α4β7^− cells (Th1 and Th2 cells; [1]): ↓
- frequency of TNF-α^+ Th2^+ cells (Th1 and Th2 cells; [1]): ↓
- frequency of TNF-α^+ Th2^+CCR5^+α4β7^+ cells (Th1 and Th2 cells; [1]): ↓
- frequency of IFN-γ^+ Th1^+CCR5^+α4β7^+ cells (Th1 and Th2 cells; gp120 pooled peptide): ↓
- frequency of IFN-γ^+ Th1^+CCR5^−α4β7^− cells (Th1 and Th2 cells; gp120 pooled peptide): ↓
- frequency of IFN-γ^+ Th2^+ cells (Th1 and Th2 cells; gp120 pooled peptide): ↓
- frequency of IFN-γ^+ Th2^+CCR5^+α4β7^+ cells (Th1 and Th2 cells; gp120 pooled peptide): ↓
- frequency of IL-10^+ Th1^+CCR5^+α4β7^+ cells (Th1 and Th2 cells; gp120 pooled peptide): ↓
- frequency of IL-10^+ Th1^+CCR5^−α4β7^− cells (Th1 and Th2 cells; gp120 pooled peptide): ↓
- frequency of IL-10^+ Th2^+CCR5^+α4β7^+ cells (Th1 and Th2 cells; gp120 pooled peptide): ↓
- frequency of IL-10^+ Th2^+CCR5^−α4β7^− cells (Th1 and Th2 cells; gp120 pooled peptide): ↓
- frequency of TNF-α^+ Th1^+ cells (Th1 and Th2 cells; gp120 pooled peptide): ↓
- frequency of TNF-α^+ Th1^+CCR5^+α4β7^+ cells (Th1 and Th2 cells; gp120 pooled peptide): ↓
- frequency of TNF-α^+ Th2^+CCR5^+α4β7^+ cells (Th1 and Th2 cells; gp120 pooled peptide): ↓
- percentage of CCR5^+α4β7^+ Th1 and Th2 cells (Th1 and Th2 cells; week 17, gp120 pooled peptides ± SAMT-247, TPEN): decreased percentage
- number of Th1 CCR5^−α4β7^− cells (Th1 and Th2 cells; week 17, gp120 pooled peptides ± SAMT-247, Zn chelation): decreased
- zinc intensity of PMA+SAMT-247 stimulated cells vs not treated with chelator (human NK cells): significantly lower
